# Results: the supplement of paper PMC11424490
# What was measured:
# NCI-H2122 = assay: combination cScore with adagrasib (Bliss gap around IC50) (%PoC); higher = stronger additive effect
# Method: (§1)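 Combination screen of 179 inhibitors with the KRAS G12C inhibitor adagrasib (MRTX849) in dose matrices, CellTiter-Glo readout in NCI-H2122 (72 h), SW837 (144 h) and NCI-H358 cells. The cScore is the mean Bliss-independence gap (expected minus observed viability, in %PoC) over a 3x3 field around the IC50s of both drugs. Positive means additive, and >~10 is stated as clear additive.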
# SW837 = assay: as above
# Method: as §1
SMILES,combination cScore with adagrasib (NCI-H2122),combination cScore with adagrasib (SW837)
C[C@@H]1C[C@H]2[C@@H]3CCC4=CC(=O)C=C[C@]4(C)[C@@]3(F)[C@@H](O)C[C@]2(C)[C@@]1(O)C(=O)CO [Dexamethasone] + C=C(F)C(=O)N1CCN(c2nc(OC[C@@H]3CCCN3C)nc3c2CCN(c2cccc4cccc(Cl)c24)C3)C[C@@H]1CC#N [adagrasib],-4.66,-0.93
CN1CCN(c2ccc(-c3cccc(CN4CCOCC4)c3)cc2NC(=O)c2c[nH]c(=O)cc2C(F)(F)F)CC1 [OICR-9429] + C=C(F)C(=O)N1CCN(c2nc(OC[C@@H]3CCCN3C)nc3c2CCN(c2cccc4cccc(Cl)c24)C3)C[C@@H]1CC#N [adagrasib],-2.61,8.92
Nc1ncn([C@@H]2O[C@H](CO)[C@@H](O)[C@H]2O)c(=O)n1 [Azacitidine] + C=C(F)C(=O)N1CCN(c2nc(OC[C@@H]3CCCN3C)nc3c2CCN(c2cccc4cccc(Cl)c24)C3)C[C@@H]1CC#N [adagrasib],-1.39,9.12
CN[C@H]1CN(c2ccc3c(=O)c(C(=O)O)cn(-c4nccs4)c3n2)C[C@@H]1OC [Vosaroxin] + C=C(F)C(=O)N1CCN(c2nc(OC[C@@H]3CCCN3C)nc3c2CCN(c2cccc4cccc(Cl)c24)C3)C[C@@H]1CC#N [adagrasib],5.97,4.99
Nc1ncn([C@H]2C[C@H](O)[C@@H](CO)O2)c(=O)n1 [Decitabine] + C=C(F)C(=O)N1CCN(c2nc(OC[C@@H]3CCCN3C)nc3c2CCN(c2cccc4cccc(Cl)c24)C3)C[C@@H]1CC#N [adagrasib],3.82,-0.47
O=C(O)C1(C(=O)O)CCC1.[NH2-].[NH2-].[Pt+2] [Carboplatin] + C=C(F)C(=O)N1CCN(c2nc(OC[C@@H]3CCCN3C)nc3c2CCN(c2cccc4cccc(Cl)c24)C3)C[C@@H]1CC#N [adagrasib],-1.99,-6.32
CC[C@]1(O)C[C@@H]2CN(CCc3c([nH]c4ccccc34)[C@@](C(=O)OC)(c3cc4c(cc3OC)N(C)[C@H]3[C@@](O)(C(=O)OC)[C@H](OC(C)=O)[C@]5(CC)C=CCN6CC[C@]43[C@@H]65)C2)C1 [Vinblastine] + C=C(F)C(=O)N1CCN(c2nc(OC[C@@H]3CCCN3C)nc3c2CCN(c2cccc4cccc(Cl)c24)C3)C[C@@H]1CC#N [adagrasib],-3.66,4.5
C/C=C1\NC(=O)[C@H]2CSSCC/C=C/[C@H](CC(=O)N[C@H](C(C)C)C(=O)N2)OC(=O)[C@H](C(C)C)NC1=O [Romidepsin] + C=C(F)C(=O)N1CCN(c2nc(OC[C@@H]3CCCN3C)nc3c2CCN(c2cccc4cccc(Cl)c24)C3)C[C@@H]1CC#N [adagrasib],-1.65,6.42
N.N.[Cl][Pt][Cl] [Cisplatin] + C=C(F)C(=O)N1CCN(c2nc(OC[C@@H]3CCCN3C)nc3c2CCN(c2cccc4cccc(Cl)c24)C3)C[C@@H]1CC#N [adagrasib],-1.07,-1.26
Cc1cc(Nc2nc(N[C@@H](C)c3ncc(F)cn3)ncc2Cl)[nH]n1 [AZD-1480] + C=C(F)C(=O)N1CCN(c2nc(OC[C@@H]3CCCN3C)nc3c2CCN(c2cccc4cccc(Cl)c24)C3)C[C@@H]1CC#N [adagrasib],3.87,1.14
COc1ccc2nc3ccc(OC)cc3c(SCCCN)c2c1 + C=C(F)C(=O)N1CCN(c2nc(OC[C@@H]3CCCN3C)nc3c2CCN(c2cccc4cccc(Cl)c24)C3)C[C@@H]1CC#N [adagrasib],7.77,-2.24
C[C@H](Cc1ccc(O)c(O)c1)[C@@H](C)Cc1ccc(O)c(O)c1 [Masoprocol] + C=C(F)C(=O)N1CCN(c2nc(OC[C@@H]3CCCN3C)nc3c2CCN(c2cccc4cccc(Cl)c24)C3)C[C@@H]1CC#N [adagrasib],1.34,-3.46
Cc1[nH]c(/C=C2\C(=O)Nc3ccc(S(=O)(=O)Cc4c(Cl)cccc4Cl)cc32)c(C)c1C(=O)N1CCC[C@@H]1CN1CCCC1 + C=C(F)C(=O)N1CCN(c2nc(OC[C@@H]3CCCN3C)nc3c2CCN(c2cccc4cccc(Cl)c24)C3)C[C@@H]1CC#N [adagrasib],6.94,-0.48
COc1cc(Nc2ncc3c(n2)-c2ccc(Cl)cc2C(c2c(F)cccc2OC)=NC3)ccc1C(=O)O [MLN8237] + C=C(F)C(=O)N1CCN(c2nc(OC[C@@H]3CCCN3C)nc3c2CCN(c2cccc4cccc(Cl)c24)C3)C[C@@H]1CC#N [adagrasib],-0.97,4.72
O=C(Cc1ccccc1)Nc1nnc(CCSCCc2nnc(NC(=O)Cc3ccccc3)s2)s1 [BPTES] + C=C(F)C(=O)N1CCN(c2nc(OC[C@@H]3CCCN3C)nc3c2CCN(c2cccc4cccc(Cl)c24)C3)C[C@@H]1CC#N [adagrasib],8.57,7.09
CC(=O)[C@]1(O)Cc2c(O)c3c(c(O)c2[C@@H](O[C@H]2C[C@H](N)[C@H](O)[C@H](C)O2)C1)C(=O)c1ccccc1C3=O [Idarubicin] + C=C(F)C(=O)N1CCN(c2nc(OC[C@@H]3CCCN3C)nc3c2CCN(c2cccc4cccc(Cl)c24)C3)C[C@@H]1CC#N [adagrasib],4.03,2.73
CN(Cc1cnc2nc(N)nc(N)c2n1)c1ccc(C(=O)N[C@@H](CCC(=O)O)C(=O)O)cc1 [Methotrexate] + C=C(F)C(=O)N1CCN(c2nc(OC[C@@H]3CCCN3C)nc3c2CCN(c2cccc4cccc(Cl)c24)C3)C[C@@H]1CC#N [adagrasib],-2.65,-8.99
CCCC(CCC)C(=O)O [Valproic acid] + C=C(F)C(=O)N1CCN(c2nc(OC[C@@H]3CCCN3C)nc3c2CCN(c2cccc4cccc(Cl)c24)C3)C[C@@H]1CC#N [adagrasib],-2.93,2.04
N[C@@H](Cc1ccc(N(CCCl)CCCl)cc1)C(=O)O [Melphalan] + C=C(F)C(=O)N1CCN(c2nc(OC[C@@H]3CCCN3C)nc3c2CCN(c2cccc4cccc(Cl)c24)C3)C[C@@H]1CC#N [adagrasib],3.55,-0.68
COc1cc(OC2CCN(C)CC2)ccc1Nc1ncc2c(n1)n(C1CCCC1)c(=O)n2C [AZ3146] + C=C(F)C(=O)N1CCN(c2nc(OC[C@@H]3CCCN3C)nc3c2CCN(c2cccc4cccc(Cl)c24)C3)C[C@@H]1CC#N [adagrasib],-1.25,9.79
CO[C@H]1C[C@@H]2CC[C@@H](C)[C@@](O)(O2)C(=O)C(=O)N2CCCC[C@H]2C(=O)O[C@H]([C@H](C)C[C@@H]2CC[C@@H](OCCO)[C@H](OC)C2)CC(=O)[C@H](C)/C=C(\C)[C@@H](O)[C@@H](OC)C(=O)[C@H](C)C[C@H](C)/C=C/C=C/C=C/1C [Everolimus] + C=C(F)C(=O)N1CCN(c2nc(OC[C@@H]3CCCN3C)nc3c2CCN(c2cccc4cccc(Cl)c24)C3)C[C@@H]1CC#N [adagrasib],-6.03,1.15
On1ncc2cc(CCc3nn[nH]n3)ccc21 + C=C(F)C(=O)N1CCN(c2nc(OC[C@@H]3CCCN3C)nc3c2CCN(c2cccc4cccc(Cl)c24)C3)C[C@@H]1CC#N [adagrasib],7.37,-2.04
CN(C)CCCC(=O)Nc1n[nH]c2nnc(-c3ccccc3)cc12 + C=C(F)C(=O)N1CCN(c2nc(OC[C@@H]3CCCN3C)nc3c2CCN(c2cccc4cccc(Cl)c24)C3)C[C@@H]1CC#N [adagrasib],-12.3,-2.5
CC(C)(C)c1ccc(S(=O)(=O)NCc2ccc(C(=O)Nc3cccnc3)cc2)cc1 [STF-31] + C=C(F)C(=O)N1CCN(c2nc(OC[C@@H]3CCCN3C)nc3c2CCN(c2cccc4cccc(Cl)c24)C3)C[C@@H]1CC#N [adagrasib],-2.08,10.7
COc1cc2c(Oc3ccc4[nH]c(C)cc4c3F)ncnc2cc1OCCCN1CCCC1 [Cediranib] + C=C(F)C(=O)N1CCN(c2nc(OC[C@@H]3CCCN3C)nc3c2CCN(c2cccc4cccc(Cl)c24)C3)C[C@@H]1CC#N [adagrasib],-4.17,-0.83
NC(=O)c1ccc(-c2nc(-c3ccccn3)c(-c3ccc4c(c3)OCO4)[nH]2)cc1 + C=C(F)C(=O)N1CCN(c2nc(OC[C@@H]3CCCN3C)nc3c2CCN(c2cccc4cccc(Cl)c24)C3)C[C@@H]1CC#N [adagrasib],0.05,-9.94
CC(C)C[C@@H](C(=O)N[C@H](C(=O)OC1CCCC1)c1ccccc1)[C@H](O)C(=O)NO [Tosedostat] + C=C(F)C(=O)N1CCN(c2nc(OC[C@@H]3CCCN3C)nc3c2CCN(c2cccc4cccc(Cl)c24)C3)C[C@@H]1CC#N [adagrasib],1.4,19.8
O=C(O)C(=O)O.[NH-][C@@H]1CCCC[C@H]1[NH-].[Pt+2] [Oxaliplatin] + C=C(F)C(=O)N1CCN(c2nc(OC[C@@H]3CCCN3C)nc3c2CCN(c2cccc4cccc(Cl)c24)C3)C[C@@H]1CC#N [adagrasib],5.21,-1.13
CC(C)c1cc(-c2n[nH]c(=O)n2-c2ccc3c(ccn3C)c2)c(O)cc1O [Ganetespib] + C=C(F)C(=O)N1CCN(c2nc(OC[C@@H]3CCCN3C)nc3c2CCN(c2cccc4cccc(Cl)c24)C3)C[C@@H]1CC#N [adagrasib],-3.01,4.14
